Experimental data: patent publication EP1247803A2, “Indolinone compounds suitable for modulation of protein kinases” (Sugen, Inc., priority 1996, dated 1998)

What was measured:
FLK-1 receptor = molecular target: T1, FLK-1 receptor (Mus musculus, UniProt P35918); assay: FLK-1 ELISA (kinase activity of the FLK-1 receptor in FLK-1/NIH3T3 cells, VEGF stimulated); assay type: cell-based
T1 construct: expressed in transfected cells; host or cells: NIH3T3 C7#3
How it was run: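 FLK-1-expressing NIH3T3 C7#3 cells, starved overnight in 0.1% FBS medium, were treated with compounds at a 1:200 final dilution (0.5% DMSO) for 2 h at 37 °C, with VEGF stimulation. FLK-1 kinase activity was read by ELISA on anti-rabbit IgG plates using affinity-purified anti-FLK-1 antiserum.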

MET = MET biochemical kinase assay; set-up: species or system human; concentration or dose not given beside the values
How it was run: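 MET from cell lysates captured on ELISA plates via rabbit anti-MET cytoplasmic-domain antibody; compounds added and kinase reaction run in ATP and divalent-metal buffer. Receptor phosphotyrosine detected with HRP-conjugated anti-phosphotyrosine antibody and TMB colorimetry.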

T1 sequence (P35918 20-1345): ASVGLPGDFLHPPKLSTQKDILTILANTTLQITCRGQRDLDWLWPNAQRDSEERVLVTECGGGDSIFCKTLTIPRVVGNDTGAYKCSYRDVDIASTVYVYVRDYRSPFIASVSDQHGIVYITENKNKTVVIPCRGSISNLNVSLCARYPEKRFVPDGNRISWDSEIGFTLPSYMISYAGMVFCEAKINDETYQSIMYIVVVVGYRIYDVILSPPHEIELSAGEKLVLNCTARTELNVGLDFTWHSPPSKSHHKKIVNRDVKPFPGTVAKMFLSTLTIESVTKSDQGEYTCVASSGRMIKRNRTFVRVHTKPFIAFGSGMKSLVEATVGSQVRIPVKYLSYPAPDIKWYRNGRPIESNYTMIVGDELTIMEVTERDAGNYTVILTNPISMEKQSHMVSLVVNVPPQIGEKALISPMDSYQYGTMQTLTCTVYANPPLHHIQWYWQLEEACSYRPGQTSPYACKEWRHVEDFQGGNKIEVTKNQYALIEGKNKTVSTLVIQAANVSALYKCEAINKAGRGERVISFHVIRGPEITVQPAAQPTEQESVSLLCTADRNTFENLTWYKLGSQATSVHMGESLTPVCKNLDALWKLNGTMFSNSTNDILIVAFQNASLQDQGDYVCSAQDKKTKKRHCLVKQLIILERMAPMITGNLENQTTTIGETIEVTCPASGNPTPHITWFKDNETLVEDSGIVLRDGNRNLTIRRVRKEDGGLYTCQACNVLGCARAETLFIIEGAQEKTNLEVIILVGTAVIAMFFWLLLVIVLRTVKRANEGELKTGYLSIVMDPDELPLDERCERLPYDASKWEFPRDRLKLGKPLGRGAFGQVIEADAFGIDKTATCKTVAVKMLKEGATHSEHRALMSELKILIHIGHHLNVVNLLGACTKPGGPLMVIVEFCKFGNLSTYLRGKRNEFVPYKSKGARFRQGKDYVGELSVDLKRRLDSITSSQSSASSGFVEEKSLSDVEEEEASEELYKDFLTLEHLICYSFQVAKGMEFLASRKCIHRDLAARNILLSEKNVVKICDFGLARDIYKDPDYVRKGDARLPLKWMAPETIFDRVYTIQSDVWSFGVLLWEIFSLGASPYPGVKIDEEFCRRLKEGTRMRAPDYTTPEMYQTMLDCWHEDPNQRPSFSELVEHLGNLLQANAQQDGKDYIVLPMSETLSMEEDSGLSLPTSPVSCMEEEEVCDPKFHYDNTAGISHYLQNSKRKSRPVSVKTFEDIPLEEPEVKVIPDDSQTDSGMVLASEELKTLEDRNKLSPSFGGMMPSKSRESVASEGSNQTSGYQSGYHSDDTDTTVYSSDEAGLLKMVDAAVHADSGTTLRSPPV

Row | SMILES | Fik Kinase %Inhibition (FLK-1 receptor) [%] | Met Kinase % Inhibition (MET) [%]
1 | O=C1Nc2ccc(I)cc2C1=Cc1c(F)cccc1C(F)(F)F [10728/B09] | 1.7 | 81.7
2 | O=C1Nc2ccc(CCCl)cc2C1=Cc1ccccc1Sc1ccc(Cl)cc1 [10727/G05] | 8.0 | 7.1
3 | O=C(O)COc1ccccc1C=C1C(=O)Nc2ccc(I)cc21 [10728/B10] | 3.9 | 79.3
4 | O=C(O)COc1ccccc1C=C1C(=O)Nc2c(Br)cc(Br)cc21 [10728/A10] | -16.3 | 77.2
5 | CCc1cc(CC)c(C=C2C(=O)Nc3ccc(S(=O)(=O)Nc4ccc(C(F)(F)F)cc4)cc32)[nH]1 [10727/E03] | 11.1 | 28.8
6 | Cc1[nH]c(C=C2C(=O)Nc3ccc(CCCl)cc32)c(Br)c1Br [10717/G11] | 16.4 | 73.8
7 | CNS(=O)(=O)c1ccc2c(c1)C(=Cc1cc(O)ccc1O)C(=O)N2 [10727/D10] | 11.4 | 79.9
8 | COc1ccc(OC)c(C=C2C(=O)Nc3ccc(Br)c(C)c32)c1 [10728/C02] | -32.1 | 15.5
9 | O=C1Nc2ccc(S(=O)(=O)N3CCOCC3)cc2C1=Cc1cc(Cl)cc(Br)c1O [10727/F04] | 15.3 | 92.0
10 | CCOC(=O)c1cc(C=C2C(=O)Nc3c(Br)cc(Br)cc32)oc1C [10718/A06] | 7.8 | 61.3
11 | O=C1Nc2c(Br)cc(Br)cc2C1=Cc1cc(C(F)(F)F)ccc1F [10728/A08] | -1.4 | 40.2
12 | COc1cccc(OC)c1C=C1C(=O)Nc2ccc(Br)c(C)c21 [10728/C03] | 10.5 | 16.9
13 | COc1cc(C=C2C(=O)Nc3c(Br)cc(Br)cc32)cc2c1OCO2 [10728/A11] | -2.3 | 58.8
14 | COc1cccc(OC)c1C=C1C(=O)Nc2c(Br)cc(Br)cc21 [10728/A03] | -7.3 | 29.2
15 | CNS(=O)(=O)c1ccc2c(c1)C(=Cc1ccccc1Sc1ccc(Cl)cc1)C(=O)N2 [10727/D05] | 8.5 | 39.9
16 | COc1cccc(C=C2C(=O)Nc3ccc(S(=O)(=O)N4CCOCC4)cc32)c1OC [10727/F11] | 17.3 | -3.0
17 | O=C1Nc2ccc(S(=O)(=O)Nc3ccc(C(F)(F)F)cc3)cc2C1=Cc1cc(Cl)cc(Br)c1O [10727/E04] | 46.1 | 98.4
18 | CCOC(=O)c1c(C)[nH]c(C=C2C(=O)Nc3c(Br)cc(Br)cc32)c1C [10718/A02] | 3.0 | 54.6
19 | N#Cc1ccc(C=C2C(=O)Nc3ccc(S(=O)(=O)Nc4ccc(C(F)(F)F)cc4)cc32)cc1 [10727/E09] | 9.3 | 28.4
20 | O=C1Nc2c(Br)cc(Br)cc2C1=Cc1ccc2c(c1)Cc1ccccc1-2 [10728/A06] | -10.4 | 19.7

Row | SMILES | Fik Kinase %Inhibition (FLK-1 receptor) [%] | Met Kinase % Inhibition (MET) [%]
21 | CCc1cc(CC)c(C=C2C(=O)Nc3ccc(CCCl)cc32)[nH]1 [10727/G03] | -3.5 | 40.5
22 | O=C1Nc2ccc(I)cc2C1=Cc1cc(C(F)(F)F)ccc1F [10728/B08] | 14.8 | 77.0
23 | COc1cc(C=C2C(=O)Nc3ccc(Br)c(C)c32)cc(OC)c1 [10728/C04] | -0.0 | 33.6
24 | CNS(=O)(=O)c1ccc2c(c1)C(=Cc1ccc3c(c1)Cc1ccccc1-3)C(=O)N2 [10728/D06] | 10.4 | 23.2
25 | CNS(=O)(=O)c1ccc2c(c1)C(=Cc1cccc(OC)c1OC)C(=O)N2 [10727/D11] | 10.5 | 17.3
26 | O=C1Nc2c(Br)cc(Br)cc2C1=Cc1c(F)cccc1C(F)(F)F [10728/A09] | -5.5 | 53.1
27 | Cc1c(Br)ccc2c1C(=Cc1cccc(C(F)(F)F)c1F)C(=O)N2 [10728/C07] | -7.2 | 46.3
28 | Cc1c(Br)ccc2c1C(=Cc1ccc3c(c1)Cc1ccccc1-3)C(=O)N2 [10728/C06] | 8.4 | 22.9
29 | CCOC(=O)CCc1c(C(=O)OCC)[nH]c(C=C2C(=O)Nc3c(Br)cc(Br)cc32)c1CC(=O)OCC [10718/A05] | 3.2 | 36.1
30 | COC(=O)c1[nH]c(C)c(C=C2C(=O)Nc3c(Br)cc(Br)cc32)c1C(=O)OC [10718/A07] | 16.2 | 58.6
31 | CNS(=O)(=O)c1ccc2c(c1)C(=Cc1ccc(C#N)cc1)C(=O)N2 [10727/D09] | 8.2 | 17.9
32 | O=C1Nc2c(Br)cc(Br)cc2C1=Cc1ccc2ccccc2c1O [10718/A04] | 6.9 | 81.7
33 | O=C1Nc2ccc(I)cc2C1=Cc1cccc(C(F)(F)F)c1F [10728/B07] | 31.4 | 82.2
34 | N#Cc1ccc(C=C2C(=O)Nc3ccc(CCCl)cc32)cc1 [10727/G09] | 5.7 | 18.8
35 | CNS(=O)(=O)c1ccc2c(c1)C(=Cc1c(OC)cccc1OC)C(=O)N2 [10728/D03] | 10.2 | 13.5
36 | COc1ccc(OC)c(C=C2C(=O)Nc3c(Br)cc(Br)cc32)c1 [10728/A02] | -12.3 | 25.6
37 | CNS(=O)(=O)c1ccc2c(c1)C(=Cc1coc3ccccc3c1=O)C(=O)N2 [10727/D07] | 19.7 | 50.6
38 | O=C1Nc2ccc(CCCl)cc2C1=Cc1cc(O)ccc1O [10727/G10] | -5.6 | 99.2
39 | CCN(CC)c1ccc(C=C2C(=O)Nc3ccc(S(=O)(=O)N4CCOCC4)cc32)cc1 [10727/F02] | 15.9 | 52.0
40 | Cc1c(Br)ccc2c1C(=Cc1cc(C(F)(F)F)ccc1F)C(=O)N2 [10728/C08] | -2.2 | 25.5

Row | SMILES | Fik Kinase %Inhibition (FLK-1 receptor) [%] | Met Kinase % Inhibition (MET) [%]
41 | N#Cc1cccc(C=C2C(=O)Nc3ccc(CCCl)cc32)c1 [10727/G08] | 15.7 | 21.8
42 | O=C1Nc2ccc(S(=O)(=O)Nc3ccc(C(F)(F)F)cc3)cc2C1=Cc1cc2c(cc1Cl)OCO2 [10727/E06] | 14.2 | -2.2
43 | O=C1Nc2ccc(S(=O)(=O)Nc3ccc(C(F)(F)F)cc3)cc2C1=Cc1cc(O)ccc1O [10727/E10] | 9.7 | 96.6
44 | N#Cc1cccc(C=C2C(=O)Nc3ccc(S(=O)(=O)N4CCOCC4)cc32)c1 [10727/F08] | 12.5 | 36.9
45 | COc1cc(N(C)C)ccc1C=C1C(=O)Nc2ccc(Br)c(C)c21 [10728/C05] | -21.7 | 33.7
46 | O=C1Nc2ccc(S(=O)(=O)N3CCOCC3)cc2C1=Cc1coc2ccccc2c1=O [10727/F07] | 21.4 | 17.9
47 | CNS(=O)(=O)c1ccc2c(c1)C(=Cc1cc3c(cc1Cl)OCO3)C(=O)N2 [10727/D06] | 13.1 | 24.4
48 | CCN(CC)c1ccc(C=C2C(=O)Nc3ccc(S(=O)(=O)Nc4ccc(C(F)(F)F)cc4)cc32)cc1 [10727/E02] | 9.3 | 28.0
49 | N#Cc1cccc(C=C2C(=O)Nc3ccc(S(=O)(=O)Nc4ccc(C(F)(F)F)cc4)cc32)c1 [10727/E08] | 14.2 | 27.0
50 | O=C1Nc2ccc(CCCl)cc2C1=Cc1cc(Cl)cc(Br)c1O [10727/G04] | 27.2 | 94.0
51 | COc1cccc(C=C2C(=O)Nc3ccc(S(=O)(=O)Nc4ccc(C(F)(F)F)cc4)cc32)c1OC [10727/E11] | 37.3 | -5.4
52 | O=C1Nc2ccc(S(=O)(=O)Nc3ccc(C(F)(F)F)cc3)cc2C1=Cc1coc2ccccc2c1=O [10727/E07] | 20.1 | 45.2
53 | COc1cccc(OC)c1C=C1C(=O)Nc2ccc(I)cc21 [10728/B03] | -1.3 | 74.4
54 | O=C1Nc2c(Br)cc(Br)cc2C1=Cc1cccc(C(F)(F)F)c1F [10728/A07] | -21.6 | 28.5
55 | CNS(=O)(=O)c1ccc2c(c1)C(=Cc1ccc(N(C)C)cc1OC)C(=O)N2 [10728/D05] | 4.9 | 29.5
56 | COc1cc(C=C2C(=O)Nc3ccc(I)cc32)cc(OC)c1 [10728/B04] | -6.0 | 67.2
57 | COc1cc(Br)c(O)c(C=C2C(=O)Nc3c(Br)cc(Br)cc32)c1 [10718/A03] | 7.6 | 92.7
58 | CCN(CC)c1ccc(C=C2C(=O)Nc3ccc(CCCl)cc32)cc1 [10727/G02] | 7.1 | 81.5
59 | COc1cc(N(C)C)ccc1C=C1C(=O)Nc2c(Br)cc(Br)cc21 [10728/A05] | -10.8 | 31.8
